Test results as given in patent publication US6017911A, “Pyridonecarboxylic acid derivatives and intermediates for the synthesis thereof” (Dainippon Pharmaceutical Co., Ltd., priority 1996, dated 2000).
≈ marks a conversion by molar mass, not a printed value. Where two headings read alike, the source gives them in different places.

Key:
[1] = system: Escherichia coli NIHJ JC-2; test: In vitro antibacterial activity (MIC), Escherichia coli NIHJ JC-2; assay type: cell-based; conditions: NIHJJC2, read-out: Minimum inhibitory concentration (MIC)
[2] = system: Staphylococcus aureus MS16405; test: In vitro antibacterial activity (MIC), Staphylococcus aureus MS16405; assay type: cell-based
[3] = system: Staphylococcus aureus 50774; test: In vitro antibacterial activity (MIC), Staphylococcus aureus 50774; assay type: cell-based
[4] = system: Pseudomonas aeruginosa No 12; test: In vitro antibacterial activity (MIC), Pseudomonas aeruginosa No 12; assay type: cell-based; conditions: NO12, read-out: Minimum inhibitory concentration (MIC)
[5] = system: Staphylococcus aureus 50774; test: Effect on systemic infection in mice; assay type: in vivo, mice (male Std-ddy strain); conditions: 168 h; Staphylococcus aureus 50774 i.p. infection; oral, twice (immediately and 6 h after infection); survival 7 days after infection
Protocol: The effects (ED50; mg/kg) on systemic infection in mice were determined as follows: Male Std-ddy strain mice (weighing about 20 g) were infected with each of the pathogenic bacteria shown in Table 2 by administering 5×10^3 viable cells intraperitoneally to each mouse. Then, a suspension of each test compound in 0.4% carboxymethylcellulose was orally administered twice, i.e., immediately after infection and 6 hours after infection. Seven days after infection, the ED50 value was calculated from the survival rate of each mouse group by probit analysis.
As a reference compound, there was used enoxacin [1-ethyl-6-fluoro-1,4-dihydro-4-oxo-7-(1-piperazinyl-1,8-naphthyridine-3-carboxylic acid; hereinafter abbreviated as ENX] that is an excellent antibacterial agent currently on the market.
The test compounds shown in the following Tables 1 and 2 are identified by the respective numbers of the Examples which will be given later.

[6] = Staphylococcus aureus, MS16405, read-out: Minimum inhibitory concentration (MIC)
[7] = Staphylococcus aureus 50774, read-out: Minimum inhibitory concentration (MIC)
[8] = Staphylococcus aureus MS16405, read-out: Minimum inhibitory concentration (MIC)

## COc1c(N2C[C@H](N)[C@H]3OCC[C@H]32)c(F)cc2c(=O)c(C(=O)O)cn(C3CC3)c12 (relative stereo) [Example 1, 7-[(1R*,5R*,8S*)-8-amino-2-oxa-6-azabicyclo[3.3.0]oct-6-yl]-1-cyclopropyl-6-fluoro-1,4-dihydro-8-methoxy-4-oxoquinoline-3-carboxylic acid]
[1]
  MIC: 0.013 mg/L (≈ 0.0322 µM)
[2]; [6]
  MIC: 0.39 mg/L (≈ 0.967 µM)
[3]; [7]
  MIC: ≤ 0.003 mg/L
[4]
  MIC: 0.39 mg/L (≈ 0.967 µM)
[5]
  ED50: 0.36 mg/kg

## COc1c(N2C[C@H](N)[C@H]3OCC[C@H]32)c(F)cc2c(=O)c(C(=O)O)cn([C@@H]3C[C@@H]3F)c12 (relative stereo) [Example 2, 7-[(1R*,5R*,8S*)-8-amino-2-oxa-6-azabicyclo[3.3.0]oct-6-yl]-6-fluoro-1-[(1R,2S)-2-fluorocyclopropyl]-1,4-dihydro-8-methoxy-4-oxoquinoline-3-carboxylicacid]
[1]
  MIC: 0.013 mg/L (≈ 0.0308 µM)
[2]; [6]
  MIC: 0.39 mg/L (≈ 0.925 µM)
[3]; [7]
  MIC: 0.006 mg/L (≈ 0.0142 µM)
[4]
  MIC: 0.39 mg/L (≈ 0.925 µM)
[5]
  ED50: 0.383 mg/kg

## Nc1c(F)c(N2C[C@H](N)[C@H]3OCC[C@H]32)c(F)c2c1c(=O)c(C(=O)O)cn2C1CC1 (relative stereo) [Example 3, 5-Amino-7-[(1R*,5R*,8S*)-8-amino-2-oxa-6-azabicyclo[3.3.0]oct-6-yl]-1-cyclopropyl-6,8-difluoro-1,4-dihydro-4-oxoquinoline-3-carboxylic acid]
[1]
  MIC: 0.006 mg/L (≈ 0.0148 µM)
[2]; [8]
  MIC: 1.56 mg/L (≈ 3.84 µM)
[3]; [7]
  MIC: 0.013 mg/L (≈ 0.032 µM)
[4]
  MIC: 0.2 mg/L (≈ 0.492 µM)
[5]
  ED50: 0.398 mg/kg

## COc1c(N2C[C@H](N)[C@H]3OCC[C@H]32)c(F)c(N)c2c(=O)c(C(=O)O)cn(C3CC3)c12 (relative stereo) [Example 4]
[1]
  MIC: 0.025 mg/L (≈ 0.0597 µM)
[2]; [6]
  MIC: 0.39 mg/L (≈ 0.932 µM)
[3]; [7]
  MIC: 0.006 mg/L (≈ 0.0143 µM)
[4]
  MIC: 0.78 mg/L (≈ 1.86 µM)
[5]
  ED50: 0.246 mg/kg

## COc1c(N2C[C@H](N)[C@H]3OCC[C@H]32)c(F)c(C)c2c(=O)c(C(=O)O)cn(C3CC3)c12 (relative stereo) [Example 5]
[1]
  MIC: 0.025 mg/L (≈ 0.0599 µM)
[2]; [8]
  MIC: 0.39 mg/L (≈ 0.934 µM)
[3]; [7]
  MIC: ≤ 0.003 mg/L
[4]
  MIC: 0.78 mg/L (≈ 1.87 µM)
[5]
  ED50: 0.257 mg/kg

## CN[C@H]1CN(c2c(F)cc3c(=O)c(C(=O)O)cn(C4CC4)c3c2OC)[C@@H]2CCO[C@H]12 (relative stereo) [Example 6]
[1]
  MIC: 0.025 mg/L (≈ 0.0599 µM)
[2]; [8]
  MIC: 1.56 mg/L (≈ 3.74 µM)
[3]; [7]
  MIC: 0.025 mg/L (≈ 0.0599 µM)
[4]
  MIC: 1.56 mg/L (≈ 3.74 µM)
[5]
  ED50: 0.292 mg/kg

## CN[C@H]1CN(c2c(F)c(C)c3c(=O)c(C(=O)O)cn(C4CC4)c3c2OC)[C@@H]2CCO[C@H]12 (relative stereo) [Example 8]
[1]
  MIC: 0.2 mg/L (≈ 0.464 µM)
[2]; [8]
  MIC: 3.13 mg/L (≈ 7.25 µM)
[3]; [7]
  MIC: 0.013 mg/L (≈ 0.0301 µM)
[4]
  MIC: 1.56 mg/L (≈ 3.62 µM)
[5]
  ED50: 0.345 mg/kg

## CN[C@H]1CN(c2c(F)c(N)c3c(=O)c(C(=O)O)cn(C4CC4)c3c2OC)[C@@H]2CCO[C@H]12 (relative stereo) [Example 9]
[1]
  MIC: 0.05 mg/L (≈ 0.116 µM)
[2]; [8]
  MIC: 1.56 mg/L (≈ 3.61 µM)
[3]; [7]
  MIC: 0.025 mg/L (≈ 0.0578 µM)
[4]
  MIC: 1.56 mg/L (≈ 3.61 µM)
[5]
  ED50: 0.415 mg/kg

## COc1c(N2C[C@H](N)[C@H]3OCCC[C@H]32)c(F)cc2c(=O)c(C(=O)O)cn(C3CC3)c12 (relative stereo) [Example 10]
[1]
  MIC: 0.1 mg/L (≈ 0.24 µM)
[2]; [6]
  MIC: 0.39 mg/L (≈ 0.934 µM)
[3]; [7]
  MIC: 0.013 mg/L (≈ 0.0311 µM)
[4]
  MIC: 3.13 mg/L (≈ 7.5 µM)
[5]
  ED50: 0.465 mg/kg

## N[C@H]1CN(c2nc3c(cc2F)c(=O)c(C(=O)O)cn3-c2ccc(F)cc2F)[C@@H]2CCO[C@@H]21 (relative stereo) [Example 11]
[1]
  MIC: 0.25 mg/L (≈ 0.56 µM)
[3]; [7]
  MIC: 0.013 mg/L (≈ 0.0291 µM)
[4]
  MIC: 0.39 mg/L (≈ 0.874 µM)
[5]
  ED50: 0.579 mg/kg

## COc1c(N2C[C@H](N)[C@H]3OCCC[C@H]32)c(F)c(N)c2c(=O)c(C(=O)O)cn(C3CC3)c12 (relative stereo) [Example 12]
[1]
  MIC: 0.1 mg/L (≈ 0.231 µM)
[2]; [8]
  MIC: 0.39 mg/L (≈ 0.902 µM)
[3]; [7]
  MIC: 0.013 mg/L (≈ 0.0301 µM)
[4]
  MIC: 1.56 mg/L (≈ 3.61 µM)
[5]
  ED50: 0.715 mg/kg

## COc1c(N2C[C@@H](N)[C@H]3OCC[C@H]32)c(F)c(N)c2c(=O)c(C(=O)O)cn(C3CC3)c12 (relative stereo) [Example 13]
[1]
  MIC: 0.05 mg/L (≈ 0.119 µM)
[2]; [8]
  MIC: 1.56 mg/L (≈ 3.73 µM)
[3]; [7]
  MIC: 0.013 mg/L (≈ 0.0311 µM)
[4]
  MIC: 0.78 mg/L (≈ 1.86 µM)
[5]
  ED50: 0.778 mg/kg

## N[C@H]1CN(c2c(F)cc3c(=O)c(C(=O)O)cn(C4CC4)c3c2OC(F)F)[C@@H]2CCO[C@@H]21 (relative stereo) [Example 14]
[1]
  MIC: 0.025 mg/L (≈ 0.0569 µM)
[2]; [8]
  MIC: 1.56 mg/L (≈ 3.55 µM)
[3]; [7]
  MIC: 0.025 mg/L (≈ 0.0569 µM)
[4]
  MIC: 1.56 mg/L (≈ 3.55 µM)
[5]
  ED50: ≤ 0.78 mg/kg

## N[C@H]1CN(c2c(F)cc3c(=O)c(C(=O)O)cn(C4CC4)c3c2Cl)[C@@H]2CCO[C@@H]21 (relative stereo) [Example 15]
[1]
  MIC: 0.013 mg/L (≈ 0.0319 µM)
[2]; [8]
  MIC: 0.78 mg/L (≈ 1.91 µM)
[3]; [7]
  MIC: 0.025 mg/L (≈ 0.0613 µM)
[4]
  MIC: 0.78 mg/L (≈ 1.91 µM)
[5]
  ED50: 1.12 mg/kg

## COc1c(N2C[C@@H](N)[C@H]3OCC[C@H]32)c(F)c(C)c2c(=O)c(C(=O)O)cn(C3CC3)c12 (relative stereo) [Example 16]
[1]
  MIC: 0.1 mg/L (≈ 0.24 µM)
[2]; [8]
  MIC: 1.56 mg/L (≈ 3.74 µM)
[3]; [7]
  MIC: 0.006 mg/L (≈ 0.0144 µM)
[4]
  MIC: 1.56 mg/L (≈ 3.74 µM)
[5]
  ED50: 0.78 mg/kg

## CN[C@H]1CN(c2nc3c(cc2F)c(=O)c(C(=O)O)cn3-c2ccc(F)cc2F)[C@@H]2CCO[C@H]12 (relative stereo) [Example 17]
[1]
  MIC: 0.1 mg/L (≈ 0.217 µM)
[3]; [7]
  MIC: 0.05 mg/L (≈ 0.109 µM)
[4]
  MIC: 0.78 mg/L (≈ 1.69 µM)
[5]
  ED50: 0.78 mg/kg

## N[C@H]1CN(c2c(F)cc3c(=O)c(C(=O)O)cn(C4CC4)c3c2F)[C@@H]2CCO[C@@H]21 (relative stereo) [Example 18]
[1]
  MIC: 0.006 mg/L (≈ 0.0153 µM)
[2]; [8]
  MIC: 1.56 mg/L (≈ 3.99 µM)
[3]; [7]
  MIC: 0.025 mg/L (≈ 0.0639 µM)
[4]
  MIC: 0.39 mg/L (≈ 0.996 µM)
[5]
  ED50: 0.928 mg/kg

## COc1c(N2C[C@@H](N)[C@H]3OCCC[C@H]32)c(F)cc2c(=O)c(C(=O)O)cn(C3CC3)c12 (relative stereo) [Example 19]
[1]
  MIC: 0.1 mg/L (≈ 0.24 µM)
[2]; [8]
  MIC: 0.78 mg/L (≈ 1.87 µM)
[3]; [7]
  MIC: 0.013 mg/L (≈ 0.0311 µM)
[4]
  MIC: 1.56 mg/L (≈ 3.74 µM)
[5]
  ED50: 0.928 mg/kg

## COc1c(N2C[C@@H](N)[C@H]3OC(C)C[C@H]32)c(F)cc2c(=O)c(C(=O)O)cn(C3CC3)c12 (relative stereo) [Example 40, 7-[(1R*,5R*,8R*)-8-amino-3-methyl-2-oxa-6-azabicyclo[3.3.0]oct-6-yl]-1-cyclopropyl-6-fluoro-1,4-dihydro-8-methoxy-4-oxoquinoline-3-carboxylic acid]
[1]
  MIC: 0.1 mg/L (≈ 0.24 µM)
[2]; [8]
  MIC: 1.56 mg/L (≈ 3.74 µM)
[3]; [7]
  MIC: 0.025 mg/L (≈ 0.0599 µM)
[4]
  MIC: 3.13 mg/L (≈ 7.5 µM)

## CCn1cc(C(=O)O)c(=O)c2cc(F)c(N3CCNCC3)nc21 [ENX, reference compound]
[1]
  MIC: 0.05 mg/L (≈ 0.156 µM)
[2]; [6]
  MIC: 100 mg/L (≈ 312 µM)
[3]; Staphylococcus aureus, 50774, read-out: Minimum inhibitory concentration (MIC)
  MIC: 0.39 mg/L (≈ 1.22 µM)
[4]
  MIC: 0.78 mg/L (≈ 2.44 µM)
[5]
  ED50: 9.89 mg/kg
